# Laboratory results reported in ChEMBL document CHEMBL1201862, “PubChem BioAssay data set” (2004).
# “And” between values parts separate entries of the source, which are not always exact repeats. Equal entries are not always repeated.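 Cultured in 96-well plates, cells were exposed to test compound for 48 hours across five concentrations. Abbreviation: GI50, concentration required for 50% inhibition of growth.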 The source made the active and inactive calls. Cut-off read from the data, not from the text of the source: active = GI50 up to about 1.1 µM and inactive = higher.
# How the values were obtained:
# Experiment in all cases: NCI anticancer screen, dose series, 48 h
# 786-0 = tested on: 786-0
# A498 = tested on: A498
# A549 = tested on: A549
# ACHN = tested on: ACHN
# CAKI-1 = tested on: CAKI-1
# CCRF-CEM = tested on: CCRF-CEM
# COLO 205 = tested on: COLO 205
# DU-145 = tested on: DU-145
# EKVX = tested on: EKVX
# HCC 2998 = tested on: HCC 2998
# HCT-116 = tested on: HCT-116
# HCT-15 = tested on: HCT-15
# HL-60 = tested on: HL-60
# HOP-62 = tested on: HOP-62
# HT-29 = tested on: HT-29
# Hs-578T = tested on: Hs-578T
# IGROV-1 = tested on: IGROV-1
# K562 = tested on: K562
# KM12 = tested on: KM12
# LOX IMVI = tested on: LOX IMVI
# M14 = tested on: M14
# MCF7 = tested on: MCF7
# MDA-MB-231 = tested on: MDA-MB-231
# MDA-MB-435 = tested on: MDA-MB-435
# MDA-N = tested on: MDA-N
# MOLT-4 = tested on: MOLT-4
# Malme-3M = tested on: Malme-3M
# NCI-H226 = tested on: NCI-H226
# NCI-H23 = tested on: NCI-H23
# NCI-H460 = tested on: NCI-H460
# NCI-H522 = tested on: NCI-H522
# NCI/ADR-RES = tested on: NCI/ADR-RES
# OVCAR-3 = tested on: OVCAR-3
# OVCAR-4 = tested on: OVCAR-4
# OVCAR-5 = tested on: OVCAR-5
# OVCAR-8 = tested on: OVCAR-8
# PC-3 = tested on: PC-3
# RPMI-8226 = tested on: RPMI-8226
# RXF 393 = tested on: RXF 393
# SF-268 = tested on: SF-268
# SF-295 = tested on: SF-295
# SF-539 = tested on: SF-539
# SK-MEL-28 = tested on: SK-MEL-28
# SK-MEL-2 = tested on: SK-MEL-2
# SK-MEL-5 = tested on: SK-MEL-5
# SK-OV-3 = tested on: SK-OV-3
# SN12C = tested on: SN12C
# SNB-19 = tested on: SNB-19
# SNB-75 = tested on: SNB-75
# SR = tested on: SR
# SW-620 = tested on: SW-620
# T47D = tested on: T47D
# U-251 = tested on: U-251
# UACC-257 = tested on: UACC-257
# UACC-62 = tested on: UACC-62
# UO-31 = tested on: UO-31
# HOP-92 = tested on: HOP-92
# TK-10 = tested on: TK-10
structure (smiles),measurement,setting,value
Cc1ccc(NCCCN2CCN(CCCNc3ccc(C)c4sc5ccccc5c(=O)c34)CC2)c2c(=O)c3ccccc3sc12,GI50,786-0,95.5 µM (inactive)
same,GI50,A498,82 µM (inactive)
same,GI50,A549,> 100 µM (inactive)
same,GI50,ACHN,> 100 µM (inactive)
same,GI50,CAKI-1,> 100 µM (inactive)
same,GI50,CCRF-CEM,> 100 µM (inactive)
same,GI50,COLO 205,> 100 µM (inactive)
same,GI50,DU-145,71.6 µM (inactive)
same,GI50,EKVX,86.3 µM (inactive)
same,GI50,HCC 2998,> 100 µM (inactive)
same,GI50,HCT-116,> 100 µM (inactive)
same,GI50,HCT-15,> 100 µM
same,GI50,HL-60,> 100 µM (inactive)
same,GI50,HOP-62,> 100 µM (inactive)
same,GI50,HT-29,> 100 µM (inactive)
same,GI50,Hs-578T,37.2 µM (inactive)
same,GI50,IGROV-1,> 100 µM (inactive)
same,GI50,K562,> 100 µM (inactive)
same,GI50,KM12,> 100 µM (inactive)
same,GI50,LOX IMVI,98.4 µM (inactive)
same,GI50,M14,> 100 µM (inactive)
same,GI50,MCF7,> 100 µM (inactive)
same,GI50,MDA-MB-231,> 100 µM (inactive)
same,GI50,MDA-MB-435,> 100 µM (inactive)
same,GI50,MDA-N,> 100 µM (inactive)
same,GI50,MOLT-4,> 100 µM (inactive)
same,GI50,Malme-3M,> 100 µM (inactive)
same,GI50,NCI-H226,> 100 µM (inactive)
same,GI50,NCI-H23,> 100 µM (inactive)
same,GI50,NCI-H460,> 100 µM (inactive)
same,GI50,NCI-H522,> 100 µM (inactive)
same,GI50,NCI/ADR-RES,> 100 µM (inactive)
same,GI50,OVCAR-3,> 100 µM (inactive)
same,GI50,OVCAR-4,> 100 µM (inactive)
same,GI50,OVCAR-5,> 100 µM (inactive)
same,GI50,OVCAR-8,> 100 µM (inactive)
same,GI50,PC-3,21.4 µM (inactive)
same,GI50,RPMI-8226,> 100 µM (inactive)
same,GI50,RXF 393,39.4 µM (inactive)
same,GI50,SF-268,34.2 µM (inactive)
same,GI50,SF-295,55.6 µM (inactive)
same,GI50,SF-539,> 100 µM (inactive)
same,GI50,SK-MEL-28,30.5 µM (inactive)
same,GI50,SK-MEL-2,23.4 µM (inactive)
same,GI50,SK-MEL-5,> 100 µM (inactive)
same,GI50,SK-OV-3,> 100 µM (inactive)
same,GI50,SN12C,> 100 µM (inactive)
same,GI50,SNB-19,> 100 µM (inactive)
same,GI50,SNB-75,20.6 µM (inactive)
same,GI50,SR,> 100 µM (inactive)
same,GI50,SW-620,> 100 µM (inactive)
same,GI50,T47D,58.7 µM (inactive)
same,GI50,U-251,67.6 µM (inactive)
same,GI50,UACC-257,> 100 µM (inactive)
same,GI50,UACC-62,68.7 µM (inactive)
same,GI50,UO-31,> 100 µM (inactive)
CCCOc1c2cc(COC3OC(CO)C(O)C(O)C3O)cc1Cc1cc(COC3OC(CO)C(O)C(O)C3O)cc(c1OCCC)Cc1cc(COC3OC(CO)C(O)C(O)C3O)cc(c1OCCC)Cc1cc(COC3OC(CO)C(O)C(O)C3O)cc(c1OCCC)C2 (stereo not given),GI50,HCC 2998,45.6 µM (inactive) and 57.8 µM (inactive) and 32 µM (inactive)
same,GI50,HOP-92,48.9 µM (inactive) and 57.1 µM (inactive)
same,GI50,Hs-578T,54 µM (inactive) and 39.1 µM (inactive)
same,GI50,MOLT-4,14.4 µM (inactive)
same,GI50,Malme-3M,> 100 µM (inactive)
same,GI50,NCI/ADR-RES,> 100 µM (inactive) and 92.7 µM (inactive)
same,GI50,RPMI-8226,50.7 µM (inactive) and 54.3 µM (inactive)
CC1CN=C(N(Cc2ccc(F)cc2)C(=O)Nc2ccc(Cl)cc2)S1 (stereo not given),GI50,786-0,20.5 µM (inactive)
same,GI50,A498,18.9 µM (inactive)
same,GI50,A549,21.4 µM (inactive)
same,GI50,ACHN,6.68 µM (inactive)
same,GI50,CAKI-1,5.32 µM (inactive)
same,GI50,CCRF-CEM,28 µM (inactive)
same,GI50,COLO 205,30.3 µM (inactive)
same,GI50,DU-145,61.9 µM (inactive)
same,GI50,EKVX,16.2 µM (inactive)
same,GI50,HCC 2998,23.2 µM (inactive)
same,GI50,HCT-116,22.3 µM (inactive)
same,GI50,HCT-15,6.22 µM
same,GI50,HL-60,17.5 µM (inactive)
same,GI50,HOP-62,93.3 µM (inactive)
same,GI50,HT-29,17.8 µM (inactive)
same,GI50,Hs-578T,51.3 µM (inactive)
same,GI50,IGROV-1,18.9 µM (inactive)
same,GI50,K562,9.23 µM (inactive)
same,GI50,KM12,14 µM (inactive)
same,GI50,LOX IMVI,16.1 µM (inactive)
same,GI50,M14,0.51 µM (active)
same,GI50,MCF7,28.8 µM (inactive)
same,GI50,MDA-MB-231,32.3 µM (inactive)
same,GI50,MDA-N,11.7 µM (inactive)
same,GI50,MOLT-4,27.7 µM (inactive)
same,GI50,Malme-3M,34.8 µM (inactive)
same,GI50,NCI-H23,26.9 µM (inactive)
same,GI50,NCI-H460,18.7 µM (inactive)
same,GI50,NCI/ADR-RES,12.5 µM (inactive)
same,GI50,OVCAR-3,20.2 µM (inactive)
same,GI50,OVCAR-4,13.3 µM (inactive)
same,GI50,OVCAR-5,> 100 µM (inactive)
same,GI50,OVCAR-8,30.1 µM (inactive)
same,GI50,PC-3,23 µM (inactive)
same,GI50,RPMI-8226,43.4 µM (inactive)
same,GI50,SF-268,21.4 µM (inactive)
same,GI50,SF-295,27.7 µM (inactive)
same,GI50,SF-539,30.5 µM (inactive)
same,GI50,SK-MEL-28,16.3 µM (inactive)
same,GI50,SK-MEL-2,15.1 µM (inactive)
same,GI50,SK-MEL-5,13.7 µM (inactive)
same,GI50,SK-OV-3,> 100 µM (inactive)
same,GI50,SN12C,28.2 µM (inactive)
same,GI50,SNB-19,95.1 µM (inactive)
same,GI50,SNB-75,18.2 µM (inactive)
same,GI50,SR,26.5 µM (inactive)
same,GI50,SW-620,22.5 µM (inactive)
same,GI50,T47D,13.3 µM (inactive)
same,GI50,TK-10,21.8 µM (inactive)
same,GI50,U-251,32.4 µM (inactive)
same,GI50,UACC-257,45.9 µM (inactive)
same,GI50,UO-31,35.2 µM (inactive)
